System: NHBE cells
Assay: Biolog metabolic array: substrate use by NHBE cells with or without CA09 infection
Format: cell-based, human
Conditions: for Substrate use, 590 nm absorbance normalized to zero hour, 0 hr: Biolog PMM2, 0 hr; for Substrate use, 590 nm absorbance normalized to zero hour, 1 hr: Biolog PMM2, 1 hr; for Substrate use, 590 nm absorbance normalized to zero hour, 5 hr: Biolog PMM2, 5 hr; for Substrate use, 590 nm absorbance normalized to zero hour, 7 hr: Biolog PMM2, 7 hr
[1] = Control (uninfected) NHBE cells
[2] = Virus (CA09-infected, MOI 1) NHBE cells
[3] = Virus: CA09-infected NHBE cells, MOI 1, Biolog PMM2
[4] = Virus (CA09, MOI 1) infected NHBE cells

Structure (SMILES)	590 nm absorbance normalized to zero hour (substrate use), 1 hr [1]	590 nm absorbance normalized to zero hour (substrate use), 2 hr [1]	590 nm absorbance normalized to zero hour (substrate use), 3 hr [1]	590 nm absorbance normalized to zero hour (substrate use), 4 hr [1]	590 nm absorbance normalized to zero hour (substrate use), 6 hr [1]	590 nm absorbance normalized to zero hour (substrate use), 8 hr [1]	590 nm absorbance normalized to zero hour (substrate use), 9 hr [1]	590 nm absorbance normalized to zero hour (substrate use), 10 hr [1]	590 nm absorbance normalized to zero hour (substrate use), 11 hr [1]	Substrate use, 590 nm absorbance normalized to zero hour, 1 hr [1]	Substrate use, 590 nm absorbance normalized to zero hour, 5 hr [1]	Substrate use, 590 nm absorbance normalized to zero hour, 7 hr [1]	590 nm absorbance normalized to zero hour (substrate use), 1 hr [2]	590 nm absorbance normalized to zero hour (substrate use), 2 hr [2]	590 nm absorbance normalized to zero hour (substrate use), 3 hr [2]	590 nm absorbance normalized to zero hour (substrate use), 4 hr [2]	590 nm absorbance normalized to zero hour (substrate use), 6 hr [2]	590 nm absorbance normalized to zero hour (substrate use), 8 hr [2]	590 nm absorbance normalized to zero hour (substrate use), 9 hr [2]	590 nm absorbance normalized to zero hour (substrate use), 11 hr [2]	also measured
OC[C@@]12OC[C@@H](O1)[C@@H](O)[C@@H](O)[C@@H]2O [Sedoheptulosan]	0.31	0.41	0.44	0.49	0.56	0.71	0.82	0.89	1.46	0.31	0.61	0.71	1.49	1.48	1.46	1.43	1.36	1.49	1.58	1.65	590 nm absorbance normalized to zero hour (substrate use), 0 hr [1]: 1.00; Substrate use, 590 nm absorbance normalized to zero hour, 0 hr [1]: 1.00; 590 nm absorbance normalized to zero hour (substrate use), 0 hr [2]: 1.00; 590 nm absorbance normalized to zero hour (substrate use), 5 hr [2]: 1.30; 590 nm absorbance normalized to zero hour (substrate use), 7 hr [2]: 1.39; 590 nm absorbance normalized to zero hour (substrate use), 10 hr [2]: 1.48; 590 nm absorbance normalized to zero hour (substrate use), 0 hr [3]: 1.00; 590 nm absorbance normalized to zero hour (substrate use), 1 hr [3]: 1.49; 590 nm absorbance normalized to zero hour (substrate use), 2 hr [3]: 1.48; 590 nm absorbance normalized to zero hour (substrate use), 3 hr [3]: 1.46; 590 nm absorbance normalized to zero hour (substrate use), 4 hr [3]: 1.43; 590 nm absorbance normalized to zero hour (substrate use), 5 hr [3]: 1.30; 590 nm absorbance normalized to zero hour (substrate use), 6 hr [3]: 1.36; 590 nm absorbance normalized to zero hour (substrate use), 7 hr [3]: 1.39; 590 nm absorbance normalized to zero hour (substrate use), 8 hr [3]: 1.49; 590 nm absorbance normalized to zero hour (substrate use), 9 hr [3]: 1.58; 590 nm absorbance normalized to zero hour (substrate use), 10 hr [3]: 1.48; 590 nm absorbance normalized to zero hour (substrate use), 11 hr [3]: 1.65
OC[C@H]1O[C@H](OC[C@H]2O[C@H](OC[C@H]3O[C@H](O[C@]4(CO)O[C@H](CO)[C@@H](O)[C@@H]4O)[C@H](O)[C@@H](O)[C@@H]3O)[C@H](O)[C@@H](O)[C@H]2O)[C@H](O)[C@@H](O)[C@H]1O [Stachyose]	8.51	8.20	7.94	8.00	3.45	3.67	3.90	9.13	4.47	8.51	3.55	6.99	1.42	1.76	1.96	2.07	5.10	3.40	3.17	4.13	590 nm absorbance normalized to zero hour (substrate use), 0 hr [1]: 1.00; Substrate use, 590 nm absorbance normalized to zero hour, 0 hr [1]: 1.00; 590 nm absorbance normalized to zero hour (substrate use), 0 hr [2]: 1.00; 590 nm absorbance normalized to zero hour (substrate use), 5 hr [2]: 4.65; 590 nm absorbance normalized to zero hour (substrate use), 7 hr [2]: 3.71; 590 nm absorbance normalized to zero hour (substrate use), 10 hr [2]: 2.89; 590 nm absorbance normalized to zero hour (substrate use), 0 hr [3]: 1.00; 590 nm absorbance normalized to zero hour (substrate use), 1 hr [3]: 1.42; 590 nm absorbance normalized to zero hour (substrate use), 2 hr [3]: 1.76; 590 nm absorbance normalized to zero hour (substrate use), 3 hr [3]: 1.96; 590 nm absorbance normalized to zero hour (substrate use), 4 hr [3]: 2.07; 590 nm absorbance normalized to zero hour (substrate use), 5 hr [3]: 4.65; 590 nm absorbance normalized to zero hour (substrate use), 6 hr [3]: 5.10; 590 nm absorbance normalized to zero hour (substrate use), 7 hr [3]: 3.71; 590 nm absorbance normalized to zero hour (substrate use), 8 hr [3]: 3.40; 590 nm absorbance normalized to zero hour (substrate use), 9 hr [3]: 3.17; 590 nm absorbance normalized to zero hour (substrate use), 10 hr [3]: 2.89; 590 nm absorbance normalized to zero hour (substrate use), 11 hr [3]: 4.13
NC(=O)CCC(=O)O [Succinamic Acid]	1.11	0.37	0.42	0.42	0.44	0.51	0.54	0.56	0.61	1.11	0.45	0.50	1.45	1.65	1.88	1.85	2.14	2.30	2.41	2.51	Substrate use, 590 nm absorbance normalized to zero hour, 1 hr [4]: 1.45; Substrate use, 590 nm absorbance normalized to zero hour, 5 hr [4]: 2.03; Substrate use, 590 nm absorbance normalized to zero hour, 7 hr [4]: 2.22; 590 nm absorbance normalized to zero hour (substrate use), 10 hr [2]: 2.37
O=C(O)CCC(=O)O [Succinic Acid]	1.02	1.06	1.08	1.06	0.39	0.96	0.94	0.87	0.81	1.02	1.04	1.00	1.69	2.01	2.37	2.37	2.73	2.85	3.06	3.12	590 nm absorbance normalized to zero hour (substrate use), 5 hr [2]: 2.54; 590 nm absorbance normalized to zero hour (substrate use), 7 hr [2]: 2.78; 590 nm absorbance normalized to zero hour (substrate use), 10 hr [2]: 2.98; 590 nm absorbance normalized to zero hour (substrate use), 1 hr [3]: 1.69; 590 nm absorbance normalized to zero hour (substrate use), 2 hr [3]: 2.01; 590 nm absorbance normalized to zero hour (substrate use), 3 hr [3]: 2.37; 590 nm absorbance normalized to zero hour (substrate use), 4 hr [3]: 2.37; 590 nm absorbance normalized to zero hour (substrate use), 5 hr [3]: 2.54; 590 nm absorbance normalized to zero hour (substrate use), 6 hr [3]: 2.73; 590 nm absorbance normalized to zero hour (substrate use), 7 hr [3]: 2.78; 590 nm absorbance normalized to zero hour (substrate use), 8 hr [3]: 2.85; 590 nm absorbance normalized to zero hour (substrate use), 9 hr [3]: 3.06; 590 nm absorbance normalized to zero hour (substrate use), 10 hr [3]: 2.98; 590 nm absorbance normalized to zero hour (substrate use), 11 hr [3]: 3.12
O=C(CO)[C@@H](O)[C@@H](O)[C@H](O)CO [Tagatose]																				0.48	

Reference: patent publication US11083725B2 (priority 2014, dated 2021)
